# Read-outs that look alike come from different tables or passages of the source.
# Assays:
# Lab. Strain 3D7 = experiment: Inhibition of proliferation, asynchronous asexual stages, SYBR-green assay, laboratory strain; format: cell-based, P. falciparum; details: Plasmodium falciparum, 3D7; 72h; laboratory strain, drug-sensitive; mean of three replicates; read-out: IC50 nM Lab. Strain 3D7 mean*
# Method: (§1) Compounds 63 and 84 were evaluated regarding the inhibition of the proliferation of multi-resistant field isolates adapted to culture. A panel of four Cambodian strains bearing different molecular markers of resistance were selected: 3D7: Laboratory strain, drug-sensitive, 5150: Cambodian isolate resistant to Chloroquine and Pyrimethamine, 6591: Cambodian isolate resistant to Chloroquine, Pyrimethamine, 5248: Cambodian isolate resistant to Chloroquine, Pyrimethamine, Mefloquine and Artemisinin, 6320: Cambodian isolate resistant to Chloroquine, Pyrimethamine, Piperaquine and Artemisinin.
# (§2) IC50 were obtained against asynchronous asexual stages using SYBR-green assay after 72h of incubation with a serial dilution of the compounds. Data represents the mean and SD of 3 independent experiments ran in triplicates. Table 2 illustrates mean IC50 values and their standard deviation in nanomolar.
# [1] = test system: artemisinin-resistant parasites (strains 5150, 6591, 5248 and 6320); experiment: Ring-stage Survival Assay (RSA); format: cell-based, P. falciparum; details: 0-3h rings
# Method: Since compounds of the invention are active on early ring stage as shown by the experiments on the cell cycle, their ability to kill artemisinin-resistant parasites in the ring-stage survival assay was tested (strains 5150, 6591, 5248 and 6320, Figure 2).
# 0-3h synchronized ring-stage parasites were exposed to a treatment of 6h with either DMSO, 700nM dihydroartemisinin (DHA), three times the IC50 value of the compound to test or 700nM DHA in combination with three times the IC50 value of the compound to test. Parasitemia was assessed at 72 hours post-synchronization using giemsa-stained thin blood smears. Percentage of survival was calculated in comparison to a DMSO-treated control. The data were obtained in three independent experiments.
# asexual NF54 parasites = experiment: Stage-specificity during the asexual cell cycle (6h treatment windows, Giemsa smears); format: cell-based, P. falciparum
# Method: To assess stage specificity of compounds of the invention, asexual NF54 parasites were tightly synchronized (0 to 3h post-invasion) using gelatin flotation and 5% D-sorbitol-treatment 3h later. […] Following the 6h-treatment, the corresponding cells were pelleted, washed with 10ml RPMI, and put back into culture in 500uL of complete media in a new plate. Parasitemia was assessed at 72 hours post-synchronization using giemsa-stained thin blood smears. Percentage of survival was calculated in comparison to a DMSO-treated control. The data were obtained in three independent experiments.
# [2] = test system: P. berghei ANKA strain GFP-expressing parasites; experiment: In vivo activity, Peters 4-day suppressive test; details: C57BL/6 mice, 10mg/kg i.p. daily for four days
# Method: In vivo activity was determined as previously described (Malmquist et al. Antimicrob. Agents Chemother. 2015, 59 (2), 950-959) following the Peters 4-day suppressive test (Peters, Ann. Trop. Med. Parasitol. 1975, 69 (2), 155-171), with slight modifications. C57BL/6 mice were infected intraperitoneally (i.p.) with 10^5 P. berghei ANKA strain GFP-expressing parasites (Ishino et al. Cell. Mol. Microbiol. 2006, 59 (4), 1175-1184). Two hours post-infection, mice were treated i.p. with a daily regimen of 10mg/kg of compound 84, or 25mg/kg of chloroquine, or the equivalent vehicle control (distillated water) for four days. Parasitemia was quantified from blood samples collected every day by flow cytometry of 50,000 RBCs and confirmed by Giemsa-stained blood smears.
# Parasites = experiment: Parasite reduction rate (time needed to kill the parasites); format: cell-based; details: survival curves, duration of treatment versus log viable parasites, Figure 3
# Method: Parasites are incubated (see for example Sanz et al. PLoS ONE 7, e30949 (2012)) with a compound of the invention (or a reference) for different time-windows, washed, and diluted serially in 96-well plates in fresh red blood cells. Parasites are kept in culture for 3 to 4 weeks, when growth is assessed to evaluate the number of parasites that survive-correlated to the number of wells where growth is found. Survival curves are obtained by plotting the duration of treatment versus the log of the number of viable parasites (figure 3).
# Strain 6591 = experiment: Inhibition of proliferation of multi-resistant field isolates, asynchronous asexual stages, SYBR-green assay; format: cell-based, P. falciparum; details: Plasmodium falciparum; 72h; Cambodian isolate resistant to Chloroquine, Pyrimethamine; mean of three replicates; read-out: IC50 nM Strain 6591 mean*
# Method: as §1, §2
# Strain 6320 = experiment: as above; format: cell-based, P. falciparum; details: Plasmodium falciparum; 72h; Cambodian isolate resistant to Chloroquine, Pyrimethamine, Piperaquine and Artemisinin; mean of three replicates; read-out: IC50 nM Strain 6320 mean*
# Method: as §1, §2
# Strain 5150 = experiment: as above; format: cell-based, P. falciparum; details: Plasmodium falciparum; 72h; Cambodian isolate resistant to Chloroquine and Pyrimethamine; mean of three replicates; read-out: IC50 nM Strain 5150 mean*
# Method: as §1, §2
# Strain 5248 = experiment: as above; format: cell-based, P. falciparum; details: Plasmodium falciparum; 72h; Cambodian isolate resistant to Chloroquine, Pyrimethamine, Mefloquine and Artemisinin; mean of three replicates; read-out: IC50 nM Strain 5248 mean*
# Method: as §1, §2
# [3] = test system: P. falciparum NF54 (drug-sensitive line); experiment: Inhibition of proliferation of asynchronous asexual cultures (SYBR Green I based assay, 72h); format: cell-based; details: for IC50: SYBR Green I, read-out: Malaria CI50
# Method: Compounds were provided at a concentration of 10 mM in DMSO.
# P. falciparum parasite are cultured using standard protocol (Trager and Jensen, Science 1976, 193(4254), 673-675). Briefly, parasites are cultured at 4% hematocrit (O+ human blood, Etablissement Français du Sang, France) in RPMI1640 complemented with 0.1% Albumax I, HEPES buffer, hypoxanthine, and gentamycin. They are incubated at 37°C under an atmosphere of 5% CO2 and 5% O2.
# Compounds of the invention were assayed for a first screen at 5µM in duplicate against asynchronous asexual cultures of P. falciparum NF54 (drug-sensitive line) containing mostly rings (2% hematocrit. 0.5% starting parasitemia). Plates were incubated for 72h at 37°C under a reduced oxygen atmosphere. Parasite growth was assessed using the SYBR Green I based assay.
# IC50 were determined using Graphpad Prism 6 software. Dihydroartemisinin (starting concentration 50nM) and DMSO were used as positive and negative controls.
smiles,measurement,setting,value
COc1cc2c3c4c1Oc1cc5c(cc1O4)C(Cc1ccc(OCCCN(C)C)c(c1)Oc1ccc(cc1)CC3N(C)CC2)N(C)CC5 (stereo not drawn) [Compound 84],IC50,Lab. Strain 3D7,136 nM
same,"Killing of resistant rings (RSA), compound alone","[1]; 6h treatment with three times the IC50 value, Figure 2",kills resistant rings using three times the IC50 value in a similar manner whichever the strain considered
same,"Killing of parasites (RSA), in combination with DHA","[1]; 6h treatment, three times the IC50 value plus 700nM DHA",able to kill the parasites of all the tested strains in combination with 700nM dihydroartemisinin (DHA)
same,Stage-specificity (survival after 6h treatment windows across the 48h cycle),"asexual NF54 parasites; synchronized NF54, 6h treatment, parasitemia at 72 hours post-synchronization, Figure 1",active throughout the 48h cycle with an increased efficiency between 12 and 42h post-invasion
same,Concentration from which the compound is active (stage-specificity assay),"asexual NF54 parasites; tested at one, two and three times the IC50 value",active starting from the concentration corresponding to 3 times the IC50 value
same,Severe malaria symptoms,[2],do not develop severe malaria symptoms
same,Survival after inoculation,[2],16 days
same,Speed of action (parasite reduction rate),Parasites,act as fast as dihydroartemisinin (DHA)
same,IC50,Strain 6591,167 nM
same,IC50,Strain 6320,183 nM
same,IC50,Strain 5150,251 nM
same,IC50,Strain 5248,346 nM
same,IC50,"[3]; NF54, 72h",137 nM
same,IC50,"[3]; Plasmodium falciparum, NF54, 72 h",130 ± 35 nM
same,activity at 5 µM,"[3]; Plasmodium falciparum, first screen at 5µM in duplicate, 72h, NF54, read-out: % survival @5uM",14.9%

# From patent publication EP3907227A1, “TRILOBINE DERIVATIVES AND THEIR USE THEREOF IN THE TREATMENT OF MALARIA” (Institut Pasteur, priority 2020, dated 2021)
